This is an account of results in US20040121965A1, “Method of treating resistant tumors” (Wyeth Holdings Corporation, priority 2002, published 2004).

Structures are written as SMILES. Like-named read-outs stand apart in the source and are kept apart here.

For orientation: IC50 means the midpoint of a concentration-inhibition curve.

The test system of experiment [1] is KB-3-1. In words: Cell survival assay (SRB), KB-3-1. The format is cell-based, human. To be noted: Homo sapiens, KB 3-1, KB-3-1 cells (paclitaxel-sensitive parent); read-out: In vitro IC50 (nM) KB-3-1. In a few lines:
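SRB protein stain as survival read-out; IC50 = conc. giving 50% growth inhibition. Compound serially diluted, duplicate wells, 3 d exposure; TCA fixation (10% final, 1 h, 4 °C), 0.04% SRB/1% acetic acid 10 min, solubilised in 10 mM Trizma Base, A read.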

Experiment [2] concerns KB-8-5 (MDR1+). In words: Cell survival assay (SRB), KB-8-5 (MDR1+). Conditions: for IC50: Homo sapiens, MDR1, read-out: In vitro IC50 (nM) KB85.
For experiment [3], the system named is KB-V1 (MDR1++). In words: Cell survival assay (SRB), KB-V1 (MDR1++). Conditions: for IC50: Homo sapiens.
Where [4] appears, read: read-out: In vitro IC50 (nM) KBV1.

In the case of `CN[C@@H](C(=O)N[C@H](C(=O)N(C)[C@H](/C=C(\C)C(=O)O)C(C)C)C(C)(C)C)C(C)(C)c1ccc(C)c(C)c1` [Example 15, N,β,β,3,4-Pentamethyl-D-phenylalanyl-N^1-[(1S,2E)-3-carboxy-1-isopropyl-2-butenyl]-N^1,3-dimethyl-L-valinamide], the IC50 in experiment [1] worked out at 13.8 nM; in experiment [2], 21.4 nM; in experiment [3] (setting [4]), 1200 nM. In experiment [2], the “Ratio KB85/KB” value amounted to 1.6. Also, the “Ratio KBV1/KB” value in experiment [3] turned out to be 87.1.
Take `CN[C@@H](C(=O)N[C@H](C(=O)N(C)[C@H](/C=C(\C)C(=O)O)C(C)C)C(C)(C)C)C(C)(C)c1ccc(Cl)cc1` [Example 6, 4-Chloro-N,β,β-trimethyl-D-phenylalanyl-N^1-[(1S,2E)-3-carboxy-1-isopropyl-2-butenyl]-N^1,3-dimethyl-L-valinamide]: the IC50 was 8.5 nM in experiment [1], 17.4 nM in experiment [2] and 1380 nM in experiment [3] (setting [4]). For the same compound, the “Ratio KB85/KB” value in experiment [2] is listed as 2.0. The “Ratio KBV1/KB” value in experiment [3] stood at 162.4.
As to `CN[C@@H](C(=O)N[C@H](C(=O)N(C)[C@H](/C=C(\C)C(=O)O)C(C)C)C(C)(C)C)C(C)(C)c1cccc(F)c1` [Example 61, 3-Fluoro-N,β,β-trimethyl-D-phenylalanyl-N^1-[(1S,2E)-3-carboxy-1-isopropyl-2-butenyl]-N^1,3-dimethyl-L-valinamide], the IC50 in experiment [1] was 12.6 nM; in experiment [2], 18.6 nM; in experiment [3] (setting [4]), 1000 nM. In addition, the “Ratio KB85/KB” value in experiment [2] was determined as 1.5. The “Ratio KBV1/KB” value in experiment [3] is 79.4.
Take `CNC(=O)/C(C)=C/[C@H](C(C)C)N(C)C(=O)[C@@H](NC(=O)[C@@H](NC)C(C)(C)c1ccccc1)C(C)(C)C` [Example 108, (E,4S)-4-[((2S)-3,3-dimethyl-2-{[(2S)-3-methyl-2-(methylamino)-3-phenylbutanoyl]amino}butanoyl)(methyl)amino]-N,2,5-trimethyl-2-hexenamide]: the IC50 in experiment [1] turned out to be 68.3 nM; in experiment [2], 129 nM; in experiment [3] (setting [4]), 1590 nM. Moreover, in experiment [2], the “Ratio KB85/KB” value amounted to 1.9. Also, in experiment [3], the “Ratio KBV1/KB” value amounted to 23.3.
As for `CN[C@@H](C(=O)N[C@H](C(=O)N(C)[C@H](/C=C(\C)C(=O)O)C(C)C)C(C)(C)C)C1(c2ccccc2)CCCC1` [Example 72, (2E,4S)-2,5-dimethyl-4-(methyl{3-methyl-N-[(2R)-2-(methylamino)-2-(1-phenylcyclopentyl)ethanoyl]-L-valyl}amino)-2-hexenoic Acid], the IC50 in experiment [1] turned out to be 59.3 nM; in experiment [2] it was 63.1 nM; in experiment [3] (setting [4]), 2660 nM. Further, the “Ratio KB85/KB” value in experiment [2] stood at 1.1. Besides, the “Ratio KBV1/KB” value in experiment [3] is 45.0.
`CN[C@H](C(=O)N[C@H](C(=O)N(C)[C@H](/C=C(\C)C(=O)O)C(C)C)C(C)(C)C)C1(c2ccccc2)CCCC1` [Example 71, (2E,4S)-2,5-dimethyl-4-(methyl{3-methyl-N-[(2S)-2-(methylamino)-2-(1-phenylcyclopentyl)ethanoyl]-L-valyl}amino)-2-hexenoic acid]: the values for the IC50 in experiment [1], in experiment [2] and in experiment [3] (setting [4]) were 141 nM, 186 nM and no less than 3000 nM, respectively. Also, the “Ratio KB85/KB” value in experiment [2] is on record as 1.3. The “Ratio KBV1/KB” value in experiment [3] was 21.2.
In the case of `CCCCCC(C)(C)[C@@H](NC)C(=O)N[C@H](C(=O)N(C)[C@H](/C=C(\C)C(=O)O)C(C)C)C(C)(C)C` [Example 51, (2E,4S)-4-[((2S)-2-{[(2R)-3,3-dimethyl-2-(methylamino)octanoyl]amino}-3,3-dimethylbutanoyl)(methyl)amino]-2,5-dimethyl-2-hexenoic Acid], the IC50 in experiment [1] is 224 nM; in experiment [2], 363 nM; in experiment [3] (setting [4]), no less than 3000 nM. In addition, in experiment [2], the “Ratio KB85/KB” value is listed as 1.6. Besides, in experiment [3], the “Ratio KBV1/KB” value is 13.4.
In the case of `C/C(=C\[C@H](C(C)C)N(C)C(=O)[C@@H](NC(=O)[C@@H](N)Cc1cccc2ccccc12)C(C)(C)C)C(=O)O` [Example 130, (2E,4S)-4-[((2S)-2-{[(2S)-2-Amino-3-(1-naphthyl)propanoyl]amino}-3,3-dimethylbutanoyl)(methyl)amino]-2,5-dimethyl-2-hexenoic Acid], the IC50 was 60.2 nM in experiment [1], 87 nM in experiment [2] and no less than 3000 nM in experiment [3] (setting [4]). In addition, the “Ratio KB85/KB” value in experiment [2] came out at 1.4. Also, the “Ratio KBV1/KB” value in experiment [3] was found to be 49.8.
For the compound `CCN[C@H](C(=O)N[C@H](C(=O)N(C)[C@H](/C=C(\C)C(=O)OCC)C(C)C)C(C)(C)C)C(C)(C)c1ccccc1` [Example 31, N-Ethyl-β,β-dimethylphenylalanyl-N^1-[(1S,2E)-4-ethoxy-1-isopropyl-3-methyl4-oxo-2-butenyl]-N^1,3-dimethyl-L-valinamide], the results for the 50% inhibitory concentration (IC50) in experiment [1], in experiment [2] and in experiment [3] (setting [4]) were 436 nM, 1860 nM and no less than 3000 nM, respectively. Further, in experiment [2], the “Ratio KB85/KB” value amounted to 4.3. The “Ratio KBV1/KB” value in experiment [3] came out at 6.9.
As to `CN[C@H](C(=O)N[C@H](C(=O)N(C)[C@H](/C=C(\C)C(=O)O)C(C)C)C(C)(C)C)C(C)(C)c1ccc(C(=O)c2ccccc2)cc1` [Example 91, 4-benzoyl-N,β,β-trimethyl-L-phenylalanyl-N^1-[(1S,2E)-3-carboxy-1-isopropylbut-2-enyl]-N^1,3-dimethyl-L-valinamide], the IC50 in experiment [1] stood at 1.7 nM; in experiment [2] it was 6.8 nM; in experiment [3] (setting [4]), 525 nM. The “Ratio KB85/KB” value in experiment [2] came to 4.0. For the same compound, in experiment [3], the “Ratio KBV1/KB” value came to 308.7.
For `CN[C@H](C(=O)N[C@H](C(=O)N(C)[C@H](/C=C(\C)C(=O)Nc1ccc(N=[N+]=[N-])cc1)C(C)C)C(C)(C)C)C(C)(C)c1ccccc1` [Example 111, N,β,β-trimethyl-L-phenylalanyl-N^1-{(1S,2E)-4-[(4-azidophenyl)amino]-1-isopropyl-3-methyl-4-oxo-2-butenyl}-N^1,3-dimethyl-L-valinamide], in that order: 178 nM, 513 nM, 2240 nM, 2.9 and 12.6.
In the same order, the values of `CCOC(=O)/C(C)=C/[C@H](C(C)C)N(C)C(=O)[C@@H](NC(=O)[C@@H](NC)C(C)(C)c1cc2ccccc2s1)C(C)(C)C` [Example 27, 3-(1-Benzothien-2-yl)-N-methylvalyl-N^1-[(1S,2E)4-ethoxy-1-isopropyl-3-methyl4-oxo-2-butenyl]-N^1,3-dimethyl-L-valinamide] are 331 nM, 1580 nM, no less than 3000 nM, 4.8 and 9.1.
Turning to `CN[C@H](C(=O)N[C@H](C(=O)N(C)[C@H](/C=C(\C)C(=O)OCc1cccs1)C(C)C)C(C)(C)C)C(C)(C)c1ccccc1` [Example 115, N,β,β-trimethyl-L-phenylalanyl-N^1-[(1S,2E)-1-isopropyl-3-methyl-4-oxo-4-(thien-2-ylmethoxy)but-2-enyl]-N^1,3-dimethyl-L-valinamide], the IC50 in experiment [1] is 5 nM; in experiment [2] it was 231 nM; in experiment [3] (read-out: In vitro IC50 KBV1) it was greater than 3000 nM. The “Ratio KB85/KB” value in experiment [2] is recorded as 46.2.
Turning to `C/C(=C\[C@H](C(C)C)N(C)C(=O)[C@@H](NC(=O)[C@@H](N1CCCC1)C(C)(C)c1ccccc1)C(C)(C)C)C(=O)O` [Example 152, (2E,4S)-2,5-dimethyl-4-(methyl{3-methyl-N-[(2S)-3-methyl-3-phenyl-2-pyrrolidin-1-ylbutanoyl]-L-valyl}amino)hex-2-enoic Acid], the figures for the IC50 in experiment [1], in experiment [2] and in experiment [3] (setting [4]) were 75 nM, 158 nM and greater than 3000 nM, respectively. Moreover, in experiment [2], the “Ratio KB85/KB” value is 2.1. In addition, the “Ratio KBV1/KB” value in experiment [3] worked out at 40.
For `CCOC(=O)/C(C)=C/[C@H](C(C)C)N(C)C(=O)[C@@H](NC(=O)[C@H](NC)C(C)(C)c1cc(C)cc(C)c1)C(C)(C)C` [Example 16b, N,β,β,3,5-pentamethyl-D-phenylalanyl-N^1-[(1S,2E)-4-ethoxy-1-isopropyl-3-methyl-4-oxo-2-butenyl]-N^1,3-dimethyl-L-valinamide], the 50% inhibitory concentration (IC50) is 257 nM in experiment [1], 1510 nM in experiment [2] and no less than 3000 nM in experiment [3] (setting [4]). Moreover, the “Ratio KB85/KB” value in experiment [2] was 5.9. Further, the “Ratio KBV1/KB” value in experiment [3] is 11.7.
In the case of `CN[C@H](C(=O)N[C@H](C(=O)N(C)[C@H](C[C@H](C)C(=O)O)C(C)C)C(C)(C)C)C(C)(C)c1ccccc1` [Example 123, N,β,β-trimethyl-L-phenylalanyl-N^1-[(1R,3S)-3-carboxy-1-isopropylbutyl]-N^1,3-dimethyl-L-valinamide], the IC50 in experiment [1] was 891 nM; in experiment [2], 537 nM; in experiment [3] (read-out: In vitro IC50 KBV1) it was greater than 3000 nM. In addition, in experiment [2], the “Ratio KB85/KB” value came to 0.6.
Turning to `CN[C@H](C(=O)N[C@H](C(=O)N(C)[C@H](/C=C(\C)C(=O)O)C(C)C)C(C)(C)C)C(C)(C)c1ccc(C(C)(C)C)cc1` [Example 30, 4-tert-Butyl-N,β,β-trimethylphenylalanyl-N^1-[(1S,2E)-3-carboxy-1-isopropyl-2-butenyl]-N^1,3-dimethyl-L-valinamide], the IC50 in experiment [1] came out at 3 nM; in experiment [2], 5.1 nM; in experiment [3] (setting [4]), 108 nM. In addition, the “Ratio KB85/KB” value in experiment [2] is 1.7. The “Ratio KBV1/KB” value in experiment [3] is recorded as 35.9.
With `CN[C@H](C(=O)N[C@@H](C(=O)N(C)[C@H](/C=C(\C)C(=O)O)C(C)C)C(C)C)C(C)(C)c1ccccc1` [Example 131, N,β,β-trimethyl-L-phenylalanyl-N^1-[(1S,2E)-3-carboxy-1-isopropylbut-2-enyl]-N^1-methyl-D-valinamide], the values for the IC50 in experiment [1], in experiment [2] and in experiment [3] (setting [4]) were 6 nM, 12 nM and no less than 3000 nM, respectively. In experiment [2], the “Ratio KB85/KB” value is on record as 2.0. The “Ratio KBV1/KB” value in experiment [3] worked out at 512.8.
